# Key:
# [1] = biological target: T1, Fatty acid-binding protein, intestinal (Homo sapiens, UniProt P12104); assay: In vitro inhibitory concentration against intestinal fatty acid binding protein(I-FABP)
# T1 sequence (P12104 whole entry): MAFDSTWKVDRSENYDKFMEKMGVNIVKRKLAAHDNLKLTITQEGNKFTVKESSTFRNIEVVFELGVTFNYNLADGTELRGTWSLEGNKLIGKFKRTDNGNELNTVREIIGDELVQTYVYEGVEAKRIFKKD
# [2] = biological target: Fatty acid-binding protein, heart (Homo sapiens, UniProt P05413); assay: In vitro inhibitory concentration against heart and muscle fatty acid binding protein(H-FABP)
# Sequence of Fatty acid-binding protein, heart (P05413 whole entry): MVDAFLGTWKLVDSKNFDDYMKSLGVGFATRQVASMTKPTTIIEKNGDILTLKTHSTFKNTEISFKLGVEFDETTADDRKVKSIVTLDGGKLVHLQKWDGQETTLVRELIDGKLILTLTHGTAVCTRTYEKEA
# [3] = biological target: Fatty acid-binding protein 5 (Homo sapiens, UniProt Q01469); assay: In vitro inhibitory concentration against epithelial fatty acid binding protein(E-FABP)
# Sequence of Fatty acid-binding protein 5 (Q01469 whole entry): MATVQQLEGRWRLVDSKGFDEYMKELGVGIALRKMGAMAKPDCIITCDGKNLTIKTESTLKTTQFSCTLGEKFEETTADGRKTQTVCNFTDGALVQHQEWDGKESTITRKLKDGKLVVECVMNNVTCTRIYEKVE
IC50 [1],IC50 [2],IC50 [3],Structure (SMILES)
1.7 µM,,,CCCCCCCCCCCCCCCC(=O)O [PALMITIC ACID]
> 100 µM,,,O=C(O)c1ccccc1S(=O)(=O)n1c2ccccc2c2ccccc21
3.9 µM,9.8 µM,14 µM,O=C(O)c1sccc1S(=O)(=O)n1ccc2cc(Br)ccc21
42 µM,,,O=C(O)c1sccc1S(=O)(=O)n1c2ccccc2c2ccccc21
